Measurements reported in the supplement of paper PMC6045584.
± gives the standard deviation of the averaged measurements.

Columns and labels:
[1] = compound: COc1cc2nccc(Oc3ccc(NC(=O)NC4CC4)c(Cl)c3)c2cc1C(N)=O [LENVATINIB]; experiment: surviving fraction relative to DMSO-only wells; higher = less growth inhibition; conditions: exposure time: 5 days
Procedure, shortened: (§1)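 Viability was scored with CellTiter-Glo luminescence and normalised to the median of DMSO-only wells as surviving fraction. Beforehand, log-phase tumour cell lines were seeded at 250–500 cells per well in 384-well plates, allowed 24 hours, and exposed continuously for five days to inhibitors at 0.5, 1, 5, 10, 50, 100, 500 and 1000 nM. Only lines whose three screens gave replicate Pearson r >0.7 and median Z' >0.3 were kept.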

[2] = compound: C[C@@H]1CN(CC(=O)Nc2ccc3c(c2)Cc2cccc(-c4cc(=O)cc(N5CCOCC5)o4)c2S3)C[C@H](C)O1; experiment: as above; conditions: exposure time: 5 days
Procedure, shortened: as §1

Row | Test System | surviving fraction ([1]; 0.5 nM) | surviving fraction ([1]; 1 nM) | surviving fraction ([1]; 5 nM) | surviving fraction ([1]; 10 nM) | surviving fraction ([1]; 50 nM) | surviving fraction ([1]; 100 nM) | surviving fraction ([1]; 500 nM) | surviving fraction ([1]; 1000 nM) | surviving fraction ([2]; 0.5 nM) | surviving fraction ([2]; 1 nM) | surviving fraction ([2]; 5 nM) | surviving fraction ([2]; 10 nM) | surviving fraction ([2]; 50 nM) | surviving fraction ([2]; 100 nM) | surviving fraction ([2]; 500 nM) | surviving fraction ([2]; 1000 nM)
1 | NCIH441 LUNG | 1.02 ± 0.12 | 1.11 ± 0.1 | 1.07 ± 0.11 | 1 ± 0.019 | 0.994 ± 0.083 | 1.09 ± 0.041 | 1.09 ± 0.075 | 1.01 ± 0.04 | 1.04 ± 0.092 | 1.03 ± 0.085 | 0.957 ± 0.1 | 1.07 ± 0.062 | 1.11 ± 0.035 | 1.11 ± 0.087 | 1.02 ± 0.056 | 1.14 ± 0.11
2 | NOS1 BONE | 1.09 ± 0.012 | 1.01 ± 0.079 | 1.24 ± 0.34 | 0.922 ± 0.074 | 0.826 ± 0.034 | 0.703 ± 0.021 | 0.624 ± 0.087 | 0.529 ± 0.011 | 1.05 ± 0.15 | 1.07 ± 0.1 | 1.12 ± 0.13 | 1.23 ± 0.13 | 1.047 ± 0.007 | 1.12 ± 0.15 | 0.818 ± 0.029 | 0.661 ± 0.057
3 | NY BONE | 1.01 ± 0.073 | 1.04 ± 0.048 | 1.05 ± 0.048 | 1.02 ± 0.065 | 1.04 ± 0.045 | 1.05 ± 0.018 | 0.869 ± 0.023 | 0.674 ± 0.007 | 1.04 ± 0.014 | 1.06 ± 0.021 | 1.05 ± 0.024 | 1.07 ± 0.011 | 1.09 ± 0.043 | 1.12 ± 0.029 | 0.9613 ± 0.0029 | 0.915 ± 0.014
4 | OS25HAL BONE | 1.03 ± 0.026 | 1.026 ± 0.0067 | 1.01 ± 0.016 | 1.01 ± 0.05 | 0.98 ± 0.027 | 0.938 ± 0.025 | 0.895 ± 0.016 | 0.88 ± 0.021 | 1.02 ± 0.026 | 1.02 ± 0.031 | 1.02 ± 0.022 | 1.02 ± 0.016 | 1.019 ± 0.0078 | 1.01 ± 0.019 | 1.05 ± 0.02 | 1.02 ± 0.018
5 | OSHN BONE | 1.11 ± 0.034 | 1.11 ± 0.044 | 1.11 ± 0.033 | 1.11 ± 0.052 | 1.1 ± 0.02 | 1.1 ± 0.035 | 1.1 ± 0.027 | 1.07 ± 0.011 | 1.06 ± 0.017 | 1.06 ± 0.029 | 1.09 ± 0.016 | 1.07 ± 0.025 | 1.017 ± 0.0072 | 1.021 ± 0.0095 | 1.01 ± 0.019 | 0.977 ± 0.0061
6 | PCI30 HEADNECK | 0.998 ± 0.031 | 1.08 ± 0.06 | 1.06 ± 0.082 | 1.07 ± 0.057 | 1.14 ± 0.084 | 1.11 ± 0.08 | 1.11 ± 0.073 | 1.17 ± 0.06 | 0.947 ± 0.047 | 0.947 ± 0.054 | 0.969 ± 0.078 | 1.04 ± 0.052 | 1.04 ± 0.064 | 1.03 ± 0.1 | 1 ± 0.034 | 0.867 ± 0.044
7 | RDES SOFT TISSUE | 1.33 ± 0.018 | 1.38 ± 0.032 | 1.15 ± 0.067 | 1.23 ± 0.083 | 1.28 ± 0.18 | 1.09 ± 0.14 | 1.09 ± 0.18 | 0.964 ± 0.25 | 1.18 ± 0.1 | 1.15 ± 0.11 | 0.972 ± 0.078 | 1.08 ± 0.24 | 0.759 ± 0.24 | 0.786 ± 0.23 | 0.799 ± 0.17 | 0.912 ± 0.24
8 | S68 BREAST | 0.924 ± 0.35 | 0.961 ± 0.079 | 0.971 ± 0.29 | 1.18 ± 0.2 | 1.09 ± 0.091 | 1.1 ± 0.26 | 0.858 ± 0.34 | 1.16 ± 0.22 | 1.03 ± 0.2 | 1.16 ± 0.29 | 1.09 ± 0.28 | 1.24 ± 0.22 | 0.826 ± 0.13 | 0.79 ± 0.18 | 0.589 ± 0.086 | 0.516 ± 0.076
9 | SAOS2 BONE | 1.1 ± 0.024 | 1.07 ± 0.0063 | 1.17 ± 0.029 | 1.16 ± 0.047 | 1.12 ± 0.046 | 1.15 ± 0.075 | 1.062 ± 0.0029 | 1.011 ± 0.0035 | 1.08 ± 0.037 | 1.01 ± 0.018 | 1.07 ± 0.021 | 1.1 ± 0.051 | 0.895 ± 0.057 | 0.977 ± 0.12 | 0.8487 ± 0.0063 | 0.774 ± 0.01
10 | SCC003 HEADNECK | 1.18 ± 0.074 | 1.1 ± 0.13 | 1.16 ± 0.12 | 1.1 ± 0.032 | 1.13 ± 0.1 | 1.18 ± 0.064 | 1.13 ± 0.051 | 1.1 ± 0.098 | 1.06 ± 0.054 | 1.03 ± 0.013 | 1.12 ± 0.077 | 1.08 ± 0.045 | 0.984 ± 0.033 | 0.967 ± 0.096 | 1.04 ± 0.1 | 0.908 ± 0.091
11 | SCC36 HEADNECK | 1.06 ± 0.041 | 1.12 ± 0.063 | 1.12 ± 0.18 | 1.21 ± 0.064 | 1.18 ± 0.044 | 1.08 ± 0.036 | 1.01 ± 0.044 | 1.05 ± 0.025 | 0.993 ± 0.025 | 1.02 ± 0.058 | 1.09 ± 0.086 | 1.03 ± 0.026 | 0.859 ± 0.071 | 0.896 ± 0.031 | 0.801 ± 0.045 | 0.798 ± 0.031
